# Where two headings read alike, the source gives them in different places.
# Key:
# [1] = Test Example 3: concentration of free arginine in the blood plasma on intravenous arginine; type: in vivo, rats; settings: for concentration at 10 min / concentration at 20 min / concentration at 30 min / concentration at 40 min: Sprague-Dawley, rat, plasma, iv
# From the text: (c) Rats were anesthetized by pentobarbital. […] (b) Administration: […]
# [2] = system: human beings; settings: human beings of average weight 78 kg, cited from earlier work
# [3] = system: male SD rats; test: Test Example 2: variation of blood pressure; settings: 50 or 150 mg of arginine per 1 kg body weight, iv over 30 min
# [4] = system: male SD rats; test: Test Example 4: blood pressure when administering arginine and glutamine to rats; settings: 50 mg arginine/kg over 30 min; 20 to 30 min after injection; average of 3 rats
# [5] = system: male SD rats; test: Test Example 5: amounts of Evans' Blue delivered to various organs after arginine
# Experimental: (b) Operation: A catheter was inserted into the jugular vein of rats under anesthesia. Then, a blood sample was collected from the catheter.
# After sufficient time, the rats were euthanasized, and the muscles, digestive tracts, liver, kidneys, spleen, heart, brain, adipose tissues, and abdominal skin were extracted. Then, Evans' Blue was released by immersing each organ in a formalin solution, and the amount of Evans' Blue in each organ was calculated from the absorbance obtained by the spectrophotometer.
# [6] = system: male SD rats; test: Test Example 2: blood flow in the capillaries of various organs, microsphere method
# Experimental: (b) Operation: Catheters were inserted into the carotid artery, jugular vein, and femoral artery of rats under anesthesia.
# After taking enough time from the second administration of the microsphere, the rats were euthanasized, and the muscles, digestive tracts, liver, kidneys, spleen, heart, brain, adipose tissues, and abdominal skin were extracted. Then, the microspheres contained in each organ were collected and the rate of change in blood flow was calculated for each organ from the amount of the microspheres.
# [7] = system: male SD rats; test: Test Example 1: blood pressure when administering arginine to rats (arterial catheter); settings: 500 mg of arginine per 1 kg body weight, iv over 30 min
# [8] = system: male SD rats; test: Test Example 1: blood flow at the skin of the lower thighs, laser Doppler blood-flowmeter; settings: for Maximum increasing rate of blood flow (Before administration: 100%): skin of lower thighs
# [9] = 50 mg of arginine per 1 kg body weight
# [10] = 150 mg of arginine per 1 kg body weight
compound,measurement,setting,value
N=C(N)NCCC[C@H](N)C(=O)O [arginine],rise of the concentration of free arginine in the blood plasma at maximum,[1]; [9],46.1 micrograms per 1 mL
same,rise of the concentration of free arginine in the blood plasma at maximum,[1]; [10],177.5 micrograms per 1 mL
same,concentration at 10 min,[1]; 50 mg/kg,43.6 µg/mL
same,concentration at 20 min,[1]; 50 mg/kg,46.1 µg/mL
same,concentration at 30 min,[1]; 50 mg/kg,38.8 µg/mL
same,concentration at 40 min,[1]; 50 mg/kg,15.7 µg/mL
same,concentration at 10 min,[1]; 150 mg/kg,156 µg/mL
same,concentration at 20 min,[1]; 150 mg/kg,115 µg/mL
same,concentration at 30 min,[1]; 150 mg/kg,178 µg/mL
same,concentration at 40 min,[1]; 150 mg/kg,77.2 µg/mL
same,vascular resistance,[2]; 6 g arginine parenterally,did not cause either effect
same,vascular resistance,[2]; 30 g arginine parenterally,lowered
same,variation of blood pressure,[3],≤ 10 mmHg
same,Maximum variation of blood pressure,[4],+11.4 mmHg
same,delivered amounts of Evans' Blue to the organs (tendency),"[5]; 50 or 150 mg of arginine per 1 kg, muscles, digestive tract, liver, kidneys, spleen, brain, adipose tissues, skin",increased
same,Changes in the amounts of Evans' Blue after administering arginine (before administration 100%),"[5]; Abdominal skin, 150 mg/kg of BW",207%
same,Changes in the amounts of Evans' Blue after administering arginine (before administration 100%),"[5]; Adipose tissues, 50 mg/kg of BW",430%
same,Changes in the amounts of Evans' Blue after administering arginine (before administration 100%),"[5]; Adipose tissues, 150 mg/kg of BW",160%
same,Changes in the amounts of Evans' Blue after administering arginine (before administration 100%),"[5]; Back skin, 50 mg/kg of BW",315%
same,Changes in the amounts of Evans' Blue after administering arginine (before administration 100%),"[5]; Back skin, 150 mg/kg of BW",331%
same,Changes in the amounts of Evans' Blue after administering arginine (before administration 100%),"[5]; Brain, 50 mg/kg of BW",169%
same,Changes in the amounts of Evans' Blue after administering arginine (before administration 100%),"[5]; Duodenum, 50 mg/kg of BW",143%
same,Changes in the amounts of Evans' Blue after administering arginine (before administration 100%),"[5]; Duodenum, 150 mg/kg of BW",85%
same,Changes in the amounts of Evans' Blue after administering arginine (before administration 100%),"[5]; Gastrocnemius muscle, 50 mg/kg of BW",219%
same,Changes in the amounts of Evans' Blue after administering arginine (before administration 100%),"[5]; Gastrocnemius muscle, 150 mg/kg of BW",154%
same,Changes in the amounts of Evans' Blue after administering arginine (before administration 100%),"[5]; Heart, 50 mg/kg of BW",87%
same,Changes in the amounts of Evans' Blue after administering arginine (before administration 100%),"[5]; Heart, 150 mg/kg of BW",85%
same,Changes in the amounts of Evans' Blue after administering arginine (before administration 100%),"[5]; Kidneys, 50 mg/kg of BW",161%
same,Changes in the amounts of Evans' Blue after administering arginine (before administration 100%),"[5]; Liver, 50 mg/kg of BW",181%
same,Changes in the amounts of Evans' Blue after administering arginine (before administration 100%),"[5]; Liver, 150 mg/kg of BW",173%
same,Changes in the amounts of Evans' Blue after administering arginine (before administration 100%),"[5]; Spleen, 50 mg/kg of BW",101%
same,Changes in the amounts of Evans' Blue after administering arginine (before administration 100%),"[5]; Spleen, 150 mg/kg of BW",92%
same,blood flow in the capillaries of the muscles and the brain,[6]; [9],significantly increased
same,"blood flow in the capillaries, all organs measured",[6]; [10],increased for all organs measured
same,Changes in blood flow after the administration of arginine (before administration 100%),"[6]; Abdominal skin, 50 mg/kg of body weight",117%
same,Changes in blood flow after the administration of arginine (before administration 100%),"[6]; Abdominal skin, 150 mg/kg of body weight",134%
same,Changes in blood flow after the administration of arginine (before administration 100%),"[6]; Adipose tissues, 50 mg/kg of body weight",99%
same,Changes in blood flow after the administration of arginine (before administration 100%),"[6]; Adipose tissues, 150 mg/kg of body weight",116%
same,Changes in blood flow after the administration of arginine (before administration 100%),"[6]; Back skin, 50 mg/kg of body weight",107%
same,Changes in blood flow after the administration of arginine (before administration 100%),"[6]; Back skin, 150 mg/kg of body weight",118%
same,Changes in blood flow after the administration of arginine (before administration 100%),"[6]; Brain, 50 mg/kg of body weight",126%
same,Changes in blood flow after the administration of arginine (before administration 100%),"[6]; Brain, 150 mg/kg of body weight",137%
same,Changes in blood flow after the administration of arginine (before administration 100%),"[6]; Duodenum, 50 mg/kg of body weight",123%
same,Changes in blood flow after the administration of arginine (before administration 100%),"[6]; Duodenum, 150 mg/kg of body weight",142%
same,Changes in blood flow after the administration of arginine (before administration 100%),"[6]; Heart, 50 mg/kg of body weight",126%
same,Changes in blood flow after the administration of arginine (before administration 100%),"[6]; Heart, 150 mg/kg of body weight",140%
same,Changes in blood flow after the administration of arginine (before administration 100%),"[6]; Kidneys, 50 mg/kg of body weight",86%
same,Changes in blood flow after the administration of arginine (before administration 100%),"[6]; Kidneys, 150 mg/kg of body weight",91%
same,Changes in blood flow after the administration of arginine (before administration 100%),"[6]; Liver, 50 mg/kg of body weight",92%
same,Changes in blood flow after the administration of arginine (before administration 100%),"[6]; Liver, 150 mg/kg of body weight",101%
same,Changes in blood flow after the administration of arginine (before administration 100%),"[6]; Muscles, 50 mg/kg of body weight",164%
same,Changes in blood flow after the administration of arginine (before administration 100%),"[6]; Muscles, 150 mg/kg of body weight",157%
same,Changes in blood flow after the administration of arginine (before administration 100%),"[6]; Spleen, 50 mg/kg of body weight",104%
same,Changes in blood flow after the administration of arginine (before administration 100%),"[6]; Spleen, 150 mg/kg of body weight",115%
same,death due to rapid reduction of blood pressure,[7],Two out of three rats died
same,Maximum increasing rate of blood flow (Before administration: 100%),"[8]; 50 mg arginine/kg iv over 30 min, 20 to 30 min after injection",+43.9%
same,Maximum increasing rate of blood flow (Before administration: 100%),"[8]; 150 mg arginine/kg iv over 30 min, 20 to 30 min after injection",+29.3%
same,Maximum increasing rate of blood flow (Before administration: 100%),"[8]; 500 mg arginine/kg iv over 30 min, 50 to 60 min after injection",+85.0%
same,amount of blood flowing to the skin of the lower thighs,[8]; all rats given 50 mg or more of arginine per 1 kg body weight,increased
